Where “and” joins values, the source holds several entries; their conditions need not be identical. Identical values can stand only once.
Experiments:
P. aeruginosa = experiment: Checkerboard assay (antibiotic potentiation); type: cell-based, Pseudomonas aeruginosa; settings: for MICantibiotic: antibiotic alone
[1] = system: MDR Gram-negative bacteria clinical isolates; experiment: Checkerboard assay, summary over strains; type: cell-based; settings: of all 14 clinical isolates; number (%)
Protocol: (§1) The interaction between the compounds and the antibiotics was evaluated using the fractional inhibitory concentration (FIC) index. FIC indices of ≤0.5 is synergistic, 0.5 < × ≤ 4 is additive, whereas >4 is antagonistic ([34]).
(§2) The antibiotic and compounds were serially diluted 2-fold in CAMHB along the x- and y-axis, respectively, on a 96-well plate that was subsequently incubated with equal volumes of bacterial inoculum overnight at 37°C. Wells containing only media were used as negative controls, and wells containing only bacteria were used as positive controls. Synergy was measured by the FIC index, which is the summation of the individual FICs of the antibiotic and the compound. The FIC is calculated by dividing the MIC of one agent in the presence of another by the MIC of the agent alone. Turbidity was confirmed with a Molecular Devices (United States) EMax Plus microplate reader at a wavelength of 590 nm. The FBS studies were conducted by following a previously published protocol ([29], [50]). The FBS was inactivated by heating at 56°C for 30 min with constant swirling.

A. baumannii = experiment: Checkerboard assay (antibiotic potentiation); type: cell-based, Acinetobacter baumannii; set-up: key to FIC index: sum of FICs; ≤0.5 synergistic, 0.5–4 additive, >4 antagonistic; settings: for MICantibiotic: antibiotic alone
E. cloacae = experiment: Checkerboard assay (antibiotic potentiation); type: cell-based, Enterobacter cloacae; settings: E. cloacae 121887 (colistin-resistant)
Protocol: The interaction between the compounds and the antibiotics was evaluated using the fractional inhibitory concentration (FIC) index. FIC indices of ≤0.5 is synergistic, 0.5 < × ≤ 4 is additive, whereas >4 is antagonistic ([34]). […] .
The bacterial isolates were acquired from ATCC or the Canadian Ward Surveillance (CANWARD) study ([56]). CANWARD isolates were collected from infected patients admitted to participating medical centers across Canada.
as §2

E. coli = experiment: Checkerboard assay (antibiotic potentiation); type: cell-based, Escherichia coli; settings: for Interpretation: antibiotic + compound 1; for MICantibiotic + compound: antibiotic MIC with 8 µg/mL (5 µM) compound 1; for MICantibiotic: antibiotic alone; for Potentiation: of antibiotic by 8 µg/mL (5 µM) compound 1
Protocol: as §1
(§3) Synergy was measured by the FIC index, which is the summation of the individual FICs of the antibiotic and the compound. The FIC is calculated by dividing the MIC of one agent in the presence of another by the MIC of the agent alone. […] The FBS studies were conducted by following a previously published protocol ([29], [50]). The FBS was inactivated by heating at 56°C for 30 min with constant swirling.

K. pneumoniae = experiment: Checkerboard assay (antibiotic potentiation); type: cell-based, Klebsiella pneumoniae; settings: for MICantibiotic + compound: antibiotic MIC with 8 µg/mL (5 µM) compound 1; for MICantibiotic: antibiotic alone
Protocol: as §1, §3

[2] = P. aeruginosa 262-101856, antibiotic + compound 1
[3] = P. aeruginosa 264-105354, antibiotic + compound 1
[4] = P. aeruginosa 114228 (colistin-resistant), antibiotic + compound 1
[5] = A. baumannii 110193, antibiotic + compound 1
[6] = A. baumannii ATCC 17978, antibiotic + compound 1
[7] = E. coli 94393 (colistin-resistant)
[8] = E. coli 94474 (colistin-resistant)
[9] = K. pneumoniae 113250 (colistin-resistant)

`CN(C)c1ccc(O)c2c1C[C@H]1C[C@H]3[C@H](N(C)C)C(O)=C(C(N)=O)C(=O)[C@@]3(O)C(O)=C1C2=O` [Minocycline] was tested, and the Interpretation (P. aeruginosa; P. aeruginosa 259-96916, antibiotic + compound 1) was “Synergy (FIC indices of ≤0.5 is synergistic)”, the “MICantibiotic + compound” value (P. aeruginosa; P. aeruginosa 259-96916, antibiotic MIC with 8 µg/mL (5 µM) compound 1) was 0.5 µg/mL and the MICantibiotic (P. aeruginosa; P. aeruginosa 259-96916) was 64 µg/mL. For the same compound, the Potentiation (P. aeruginosa; P. aeruginosa 259-96916, of antibiotic by 8 µg/mL (5 µM) compound 1) was 128 fold, the FIC index (P. aeruginosa; [2]) was “x < 0.078” and the Interpretation (P. aeruginosa; [2]) was “Synergy (FIC indices of ≤0.5 is synergistic)”. The “MICantibiotic + compound” value (P. aeruginosa; P. aeruginosa 262-101856, antibiotic MIC with 8 µg/mL (5 µM) compound 1) was 2 µg/mL, the MICantibiotic (P. aeruginosa; P. aeruginosa 262-101856) was greater than 128 µg/mL and the Potentiation (P. aeruginosa; P. aeruginosa 262-101856, of antibiotic by 8 µg/mL (5 µM) compound 1) was ≥128-fold. For the same compound, the FIC index (P. aeruginosa; [3]) was “x < 0.070”, the Interpretation (P. aeruginosa; [3]) was “Synergy (FIC indices of ≤0.5 is synergistic)” and the “MICantibiotic + compound” value (P. aeruginosa; P. aeruginosa 264-105354, antibiotic MIC with 8 µg/mL (5 µM) compound 1) was 0.5 µg/mL. The MICantibiotic (P. aeruginosa; P. aeruginosa 264-105354) was greater than 64 µg/mL, the Potentiation (P. aeruginosa; P. aeruginosa 264-105354, of antibiotic by 8 µg/mL (5 µM) compound 1) was ≥256-fold and the Interpretation (P. aeruginosa; P. aeruginosa 101243 (colistin-resistant), antibiotic + compound 1) was “Synergy (FIC indices of ≤0.5 is synergistic)”. For the same compound, the “MICantibiotic + compound” value (P. aeruginosa; P. aeruginosa 101243 (colistin-resistant), antibiotic MIC with 8 µg/mL (5 µM) compound 1) was 4 µg/mL, the MICantibiotic (P. aeruginosa; P. aeruginosa 101243 (colistin-resistant)) was 16 µg/mL and the Potentiation (P. aeruginosa; P. aeruginosa 101243 (colistin-resistant), of antibiotic by 8 µg/mL (5 µM) compound 1) was 4 fold. The FIC index (P. aeruginosa; [4]) was “x < 0.313”, the Interpretation (P. aeruginosa; [4]) was “Synergy (FIC indices of ≤0.5 is synergistic)” and the “MICantibiotic + compound” value (P. aeruginosa; P. aeruginosa 114228 (colistin-resistant), antibiotic MIC with 8 µg/mL (5 µM) compound 1) was 16 µg/mL. For the same compound, the MICantibiotic (P. aeruginosa; P. aeruginosa 114228 (colistin-resistant)) was greater than 64 µg/mL, the Potentiation (P. aeruginosa; P. aeruginosa 114228 (colistin-resistant), of antibiotic by 8 µg/mL (5 µM) compound 1) was ≥8-fold and the Interpretation (P. aeruginosa; P. aeruginosa PAO1, antibiotic + compound 1) was “Synergy (FIC indices of ≤0.5 is synergistic)”. The Interpretation (P. aeruginosa; P. aeruginosa PAO1, antibiotic + compound 3) was “Additive (0.5 < × ≤ 4 is additive)”, the “MICantibiotic + compound” value (P. aeruginosa; P. aeruginosa PAO1, antibiotic MIC with 8 µg/mL (5 µM) compound 1) was 0.5 µg/mL and the “MICantibiotic + compound” value (P. aeruginosa; P. aeruginosa PAO1, antibiotic MIC with 8 µg/mL (5 µM) compound 3) was 64 µg/mL. The MICantibiotic (P. aeruginosa; P. aeruginosa PAO1) was 64 µg/mL and 32 µg/mL, the Potentiation (P. aeruginosa; P. aeruginosa PAO1, of antibiotic by 8 µg/mL (5 µM) compound 1) was 64 fold and the Potentiation (P. aeruginosa; P. aeruginosa PAO1, of antibiotic by 8 µg/mL (5 µM) compound 3) was 1 fold. For the same compound, the “clinical isolates in which the antibiotic was synergized by compound 1” value [1] was 8 (57%) strains, the Interpretation (A. baumannii; A. baumannii 92247 (colistin-resistant), antibiotic + compound 1) was “Additive (0.5 < × ≤ 4 is additive)” and the “MICantibiotic + compound” value (A. baumannii; A. baumannii 92247 (colistin-resistant), antibiotic MIC with 4 µg/mL (2 µM) compound 1) was 0.25 µg/mL. For the same compound, the MICantibiotic (A. baumannii; A. baumannii 92247 (colistin-resistant)) was 0.25 µg/mL, the Potentiation (A. baumannii; A. baumannii 92247 (colistin-resistant), of antibiotic by 4 µg/mL (2 µM) compound 1) was 1 fold and the FIC index (A. baumannii; [5]) was 0.75. For the same compound, the Interpretation (A. baumannii; [5]) was “Additive (0.5 < × ≤ 4 is additive)”, the “MICantibiotic + compound” value (A. baumannii; A. baumannii 110193, antibiotic MIC with 4 µg/mL (2 µM) compound 1) was 2 µg/mL and the MICantibiotic (A. baumannii; A. baumannii 110193) was 2 µg/mL. The Potentiation (A. baumannii; A. baumannii 110193, of antibiotic by 4 µg/mL (2 µM) compound 1) was 1 fold, the Interpretation (A. baumannii; A. baumannii AB027, antibiotic + compound 1) was “Additive (0.5 < × ≤ 4 is additive)” and the “MICantibiotic + compound” value (A. baumannii; A. baumannii AB027, antibiotic MIC with 4 µg/mL (2 µM) compound 1) was 1 µg/mL. The MICantibiotic (A. baumannii; A. baumannii AB027) was 2 µg/mL, the Potentiation (A. baumannii; A. baumannii AB027, of antibiotic by 4 µg/mL (2 µM) compound 1) was 2 fold and the Interpretation (A. baumannii; A. baumannii AB031, antibiotic + compound 1) was “Additive (0.5 < × ≤ 4 is additive)”. For the same compound, the “MICantibiotic + compound” value (A. baumannii; A. baumannii AB031, antibiotic MIC with 4 µg/mL (2 µM) compound 1) was 1 µg/mL, the MICantibiotic (A. baumannii; A. baumannii AB031) was 2 µg/mL and the Potentiation (A. baumannii; A. baumannii AB031, of antibiotic by 4 µg/mL (2 µM) compound 1) was 2 fold. For the same compound, the FIC index (A. baumannii; [6]) was 0.254, the Interpretation (A. baumannii; [6]) was “Synergy (FIC indices of ≤0.5 is synergistic)” and the Interpretation (A. baumannii; A. baumannii ATCC 17978, antibiotic + compound 3) was “Additive (0.5 < × ≤ 4 is additive)”. The “MICantibiotic + compound” value (A. baumannii; A. baumannii ATCC 17978, antibiotic MIC with 8 µg/mL (5 µM) compound 3) was 0.125 µg/mL, the “MICantibiotic + compound” value (A. baumannii; A. baumannii ATCC 17978, antibiotic MIC with ¼ MIC (≤5 µM) of compound 1) was 0.004 µg/mL and the Potentiation (A. baumannii; A. baumannii ATCC 17978, of antibiotic by 8 µg/mL (5 µM) compound 3) was 1 fold. The Potentiation (A. baumannii; A. baumannii ATCC 17978, of antibiotic by ¼ MIC (≤5 µM) of compound 1) was 256 fold, the Interpretation (E. cloacae; antibiotic + compound 1) was “Additive (0.5 < × ≤ 4 is additive)” and the “MICantibiotic + compound” value (E. cloacae; antibiotic MIC with 8 µg/mL (5 µM) compound 1) was 0.5 µg/mL. The MICantibiotic (E. cloacae; antibiotic alone) was 0.5 µg/mL, the Potentiation (E. cloacae; of antibiotic by 8 µg/mL (5 µM) compound 1) was 1 fold and the Interpretation (E. coli; [7]) was “Synergy (FIC indices of ≤0.5 is synergistic)”. For the same compound, the “MICantibiotic + compound” value (E. coli; [7]) was 0.125 µg/mL, the MICantibiotic (E. coli; [7]) was 0.5 µg/mL and the Potentiation (E. coli; [7]) was 4 fold. The Interpretation (E. coli; [8]) was “Synergy (FIC indices of ≤0.5 is synergistic)”, the “MICantibiotic + compound” value (E. coli; [8]) was 8 µg/mL and the MICantibiotic (E. coli; [8]) was 64 µg/mL. For the same compound, the Potentiation (E. coli; [8]) was 8 fold, the “MICantibiotic + compound” value (K. pneumoniae; [9]) was greater than 4 µg/mL and the MICantibiotic (K. pneumoniae; [9]) was greater than 4 µg/mL. For the same compound, the Interpretation (K. pneumoniae; K. pneumoniae 116381, antibiotic + compound 1) was “Synergy (FIC indices of ≤0.5 is synergistic)”, the “MICantibiotic + compound” value (K. pneumoniae; K. pneumoniae 116381) was 4 µg/mL and the MICantibiotic (K. pneumoniae; K. pneumoniae 116381) was 128 µg/mL. It also gave a Potentiation (K. pneumoniae; K. pneumoniae 116381, of antibiotic by 8 µg/mL (5 µM) compound 1) of 32 fold.

From PMC12587545, “Noncytotoxic polymyxin derivatives enhance antibiotic action against multidrug-resistant Gram-negative bacteria” (Antimicrobial Agents and Chemotherapy, 2025)
